In patent US6500838B2, “Treatment of stereotypic, self-injurious and compulsive behaviors in man and animals using antagonists of NMDA receptors” (The Trustees of Tufts College, priority 1998, dated 2002):

Tests used:
[1] = tested on: crib-biting horses; test: Rate of crib-biting in horses after drug treatment; assay type: in vivo, horse
Experimental: Horses were admitted to the Large Animal Hospital of Tufts University School of Veterinary Medicine or were tested in their home barn. Cribbing straps and food were removed prior to testing. Control rates of crib-biting were observed and recorded for 5 minute intervals for one hour or more after an intravenous injection of 0.15 M saline. Test drugs were administered orally (by gavage) or by injection into the jugular vein. Solutions were made up with physiological saline and sterilized by filtration through a 0.2 micron filter (Millipore).
For the experimental data shown in FIG. 1, after establishment of a stable control rate of approximately 10 crib-bites per minute, 50 mg of D-methadone-HCl in 25 ml saline was injected i.v. In FIG. 1, the cumulative number of crib-bites was plotted against time as was the rate per 5 minute interval (Shuster, L. and N. H. Dodman, pp. 185-202, In Psychopharmacology of Animal Behavior Disorders, (N. H. Dodman and L. Shuster, eds.), Blackwell Scientific, Malden, Mass., 1998). […] The control rate then resumed during the next 80 minutes of observation. Horses were observed continuously during scoring for side effects that might be attributed to the treatment. These included changes in posture, disposition and motor activity. See also Table 1.

[2] = tested on: BALB/c male mice; test: Mouse model for pruritus: scratching after compound 48/80; assay type: in vivo
Experimental: The animals used were BALB/c male mice, weighing 27-33 g. One mouse was used per compound tested, except for two control mice receiving saline; two different mice were tested with (+) methadone, each with a different dose. Compound 48/80 (Kuraishi, Y. et al., European Journal of Pharmacology 275:229-233, 1995), 0.5 mg/ml in saline, was injected subcutaneously in a volume of 0.1 ml, between the shoulder blades of the mouse. Test compounds, dissolved in saline, were injected intraperitoneally in a volume of 0.1 ml per 10 g, either 10 minutes before or 30 minutes after injection of compound 48/80. The cumulative number of scratches with a hind leg were recorded at 10 minute intervals for 60 minutes following the injection of compound 48/80. See Tables 2 and 3, as well as FIGS. 4, 5A and 5B, showing the effectiveness of the compounds tested: naltrexone, dextromethorphan, (+) methadone, haloperidol, and (+) naloxone.

[3] = tested on: stall-walking horse; test: Stall-walking (turning) in a horse, circuits around the stall; assay type: in vivo; settings: horse Full Circle (turning), 1.0 mg/kg, iv.
Experimental: Dextromethorphan-HBr, 1.0 mg/kg i.v., was injected after 60 minutes of control observations, to test its effect on a stall-walking horse. When measuring “stall walking” locomotor activity, each circuit around the stall was scored as one rotation. Cumulative rotations per 5 minute interval were plotted against time to establish the rate of circling. The results of the experiment are plotted in FIG. 2. See also Table 1.

[4] = horse CB, 0.2 mg/kg, iv., before treatment 8.8
[5] = 10 mg/kg i.p. 10 minutes before 48/80, 10 minutes after 48/80
[6] = 10 mg/kg i.p. 10 minutes before 48/80, 20 minutes after 48/80
[7] = 10 mg/kg i.p. 10 minutes before 48/80, 30 minutes after 48/80
[8] = 10 mg/kg i.p. 10 minutes before 48/80, 40 minutes after 48/80
[9] = 10 mg/kg i.p. 10 minutes before 48/80, 50 minutes after 48/80
[10] = 10 mg/kg i.p. 10 minutes before 48/80, 60 minutes after 48/80
[11] = 20 mg/kg i.p. 30 minutes after 48/80, time 10 minutes (before dosing)
[12] = 20 mg/kg i.p. 30 minutes after 48/80, time 20 minutes (before dosing)
[13] = 20 mg/kg i.p. 30 minutes after 48/80, time 30 minutes
[14] = 20 mg/kg i.p. 30 minutes after 48/80, time 40 minutes
[15] = 20 mg/kg i.p. 30 minutes after 48/80, time 50 minutes
[16] = 20 mg/kg i.p. 30 minutes after 48/80, time 60 minutes
[17] = horse CB, 0.2 mg/kg, iv., before treatment 8.2

Compound: CCC(=O)C(C[C@H](C)N(C)C)(c1ccccc1)c1ccccc1 [(+) Methadone]
- rate of crib-bites per 5 minute interval ([1]; 50 mg in 25 ml saline i.v., control rate approximately 10 crib-bites per minute, resumed during the next 80 minutes): decreased between the second and the fifth 5-minute interval following injection
- Crib-biting Frequency number per minute After treatment [1, 4]: 2.6 number per minute
- Duration of Effect [1, 4]: 20 min
- lag before effect [1, 4]: (10 min lag)
- Duration of Effect ([1]; horse CB, .01 mg/kg, iv.): 10 min
- Crib-biting Frequency number per minute After treatment ([1]; horse CB, .01 mg/kg, iv., before treatment 8.2): 5.5 number per minute
- Cumulative Scratches ([2]; 5 mg/kg i.p. 30 minutes after 48/80, time 10 minutes (before dosing)): 0
- Cumulative Scratches ([2]; 5 mg/kg i.p. 30 minutes after 48/80, time 20 minutes (before dosing)): 56
- Cumulative Scratches ([2]; 5 mg/kg i.p. 30 minutes after 48/80, time 30 minutes): 114
- Cumulative Scratches ([2]; 5 mg/kg i.p. 30 minutes after 48/80, time 40 minutes): 145
- Cumulative Scratches ([2]; 5 mg/kg i.p. 30 minutes after 48/80, time 50 minutes): 210
- Cumulative Scratches ([2]; 5 mg/kg i.p. 30 minutes after 48/80, time 60 minutes): 267
- Cumulative Scratches [2, 5]: 0
- Cumulative Scratches [2, 6]: 0
- Cumulative Scratches [2, 7]: 0
- Cumulative Scratches [2, 8]: 0
- Cumulative Scratches [2, 9]: 0
- Cumulative Scratches [2, 10]: 0
- Cumulative Scratches ([2]; 10 mg/kg i.p. 30 minutes after 48/80, time 10 minutes (before dosing)): 6
- Cumulative Scratches ([2]; 10 mg/kg i.p. 30 minutes after 48/80, time 20 minutes (before dosing)): 38
- Cumulative Scratches ([2]; 10 mg/kg i.p. 30 minutes after 48/80, time 30 minutes): 106
- Cumulative Scratches ([2]; 10 mg/kg i.p. 30 minutes after 48/80, time 40 minutes): 107
- Cumulative Scratches ([2]; 10 mg/kg i.p. 30 minutes after 48/80, time 50 minutes): 107
- Cumulative Scratches ([2]; 10 mg/kg i.p. 30 minutes after 48/80, time 60 minutes): 107

Compound: C=CCN1CC[C@]23c4c5ccc(O)c4O[C@H]2C(=O)CC[C@]3(O)[C@H]1C5 [(+) naloxone]
- Duration of Effect ([1]; horse CB, 0.12 mg/kg, iv.): 60 min
- lag before effect ([1]; horse CB, 0.12 mg/kg, iv.): (30 min lag)
- Crib-biting Frequency number per minute After treatment ([1]; horse CB, 0.12 mg/kg, iv., before treatment 10): 6.6 number per minute
- Duration of Effect ([1]; horse CB, 0.18 mg/kg, i.v.): 60 min
- lag before effect ([1]; horse CB, 0.18 mg/kg, i.v.): (no lag)
- Crib-biting Frequency number per minute After treatment ([1]; horse CB, 0.18 mg/kg, i.v., before treatment 9.2): 0.8 number per minute
- Cumulative Scratches [2, 11]: 4
- Cumulative Scratches [2, 12]: 48
- Cumulative Scratches [2, 13]: 105
- Cumulative Scratches [2, 14]: 112
- Cumulative Scratches [2, 15]: 146
- Cumulative Scratches [2, 16]: 175

Compound: CNC1(c2ccccc2Cl)CCCCC1=O (stereo not drawn) [ketamine]
- Crib-biting Frequency number per minute After treatment [1, 17]: 1.3 number per minute
- Duration of Effect [1, 17]: 50 min
- lag before effect [1, 17]: (no lag)

Compound: COc1ccc2c(c1)[C@]13CCCC[C@@H]1[C@H](C2)N(C)CC3 [Dextromethorphan]
- Duration of Effect [3]: 45 min
- lag before effect [3]: (no lag)
- turns per min. After treatment ([3]; before treatment 3.5 turns per min.): .3 turns turns per min.
- Duration of Effect ([1]; horse CB, 1.0 mg/kg, i.v.): 35 min
- lag before effect ([1]; horse CB, 1.0 mg/kg, i.v.): (no lag)
- Crib-biting Frequency number per minute After treatment ([1]; horse CB, 1.0 mg/kg, i.v., before treatment 7.6): 0.3 number per minute
- Duration of Effect ([1]; horse CB, 1.0 mg/kg, p.o.): 90 min
- lag before effect ([1]; horse CB, 1.0 mg/kg, p.o.): (35 min lag)
- Crib-biting Frequency number per minute After treatment ([1]; horse CB, 1.0 mg/kg, p.o., before treatment 8): 1.7 number per minute
- Duration of Effect ([1]; horse Frito, 3.2 mg/kg p.o.): 100 min
- lag before effect ([1]; horse Frito, 3.2 mg/kg p.o.): (30 min lag)
- Crib-biting Frequency number per minute After treatment ([1]; horse Frito, 3.2 mg/kg p.o., before treatment 3.5): 1.8 number per minute
- Cumulative Scratches [2, 5]: 1
- Cumulative Scratches [2, 6]: 57
- Cumulative Scratches [2, 7]: 105
- Cumulative Scratches [2, 8]: 157
- Cumulative Scratches [2, 9]: 182
- Cumulative Scratches [2, 10]: 192
- Cumulative Scratches [2, 11]: 47
- Cumulative Scratches [2, 12]: 125
- Cumulative Scratches [2, 13]: 158
- Cumulative Scratches [2, 14]: 171
- Cumulative Scratches [2, 15]: 178
- Cumulative Scratches [2, 16]: 185

Compound: (−) naloxone
- Duration of Effect ([1]; horse CB, .04 mg/kg, i.v.): 65 min
- lag before effect ([1]; horse CB, .04 mg/kg, i.v.): (10 min lag)
- Crib-biting Frequency number per minute After treatment ([1]; horse CB, .04 mg/kg, i.v., before treatment 12): 0.1 number per minute

Compound: O=C1CC[C@@]2(O)[C@H]3Cc4ccc(O)c5c4[C@@]2(CCN3CC2CC2)[C@H]1O5 [Naltrexone]
- Cumulative Scratches [2, 5]: 0
- Cumulative Scratches [2, 6]: 0
- Cumulative Scratches [2, 7]: 0
- Cumulative Scratches [2, 8]: 1
- Cumulative Scratches [2, 9]: 61
- Cumulative Scratches [2, 10]: 73

Compound: O=C(CCCN1CCC(O)(c2ccc(Cl)cc2)CC1)c1ccc(F)cc1 [Haloperidol]
- Cumulative Scratches ([2]; 2.0 mg/kg i.p. 30 minutes after 48/80, time 10 minutes (before dosing)): 2
- Cumulative Scratches ([2]; 2.0 mg/kg i.p. 30 minutes after 48/80, time 20 minutes (before dosing)): 87
- Cumulative Scratches ([2]; 2.0 mg/kg i.p. 30 minutes after 48/80, time 30 minutes): 108
- Cumulative Scratches ([2]; 2.0 mg/kg i.p. 30 minutes after 48/80, time 40 minutes): 137
- Cumulative Scratches ([2]; 2.0 mg/kg i.p. 30 minutes after 48/80, time 50 minutes): 137
- Cumulative Scratches ([2]; 2.0 mg/kg i.p. 30 minutes after 48/80, time 60 minutes): 142
